Laboratory results from patent US20100324073A1, “Pyrazolo [1,5-A] Pyrimidine Compounds” (Wyeth LLC, priority 2007, published 2010).

Assays:
human LXRβ = target: T1, human LXRβ (Homo sapiens, UniProt P55055); assay: Ligand-binding test procedure for human LXRβ; settings: competition with 3H T0901317, biotinylated hLXRβ; read-out: hLXRb binding IC50
T1 construct: made in house; host or cells: E. coli
T1 sequence (P55055 1-460): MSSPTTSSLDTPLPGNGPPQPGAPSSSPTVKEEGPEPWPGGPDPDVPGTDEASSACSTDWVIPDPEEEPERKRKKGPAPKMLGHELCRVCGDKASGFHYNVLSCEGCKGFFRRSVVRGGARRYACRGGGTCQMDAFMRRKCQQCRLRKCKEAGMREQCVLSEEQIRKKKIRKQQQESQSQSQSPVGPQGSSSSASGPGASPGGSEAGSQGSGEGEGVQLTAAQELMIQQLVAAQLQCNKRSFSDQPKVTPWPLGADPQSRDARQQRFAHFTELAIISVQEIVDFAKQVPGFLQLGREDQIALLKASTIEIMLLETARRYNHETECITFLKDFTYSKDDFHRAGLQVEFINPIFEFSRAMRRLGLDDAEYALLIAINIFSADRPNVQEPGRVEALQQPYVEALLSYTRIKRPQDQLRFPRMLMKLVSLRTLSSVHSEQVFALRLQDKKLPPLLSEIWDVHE
Description: I. Ligand-Binding Test Procedure for Human LXRβ.
(§1) Buffer: 100 mM KCl, 100 mM TRIS (pH 7.4 at +4° C.), 8.6% glycerol, 0.1 mM PMSF*, 2 mM MTG*, 0.2% CHAPS (* not used in wash buffer)
Receptor source: E. coli extract from cells expressing biotinylated hLXRβ. Extract was made in a similar buffer as above, but with 50 mM TRIS.
(§2) Washed streptavidin and coated flash plates with wash buffer. Diluted receptor extract to give Bmax˜4000 cpm and add to the wells. Wrapped the plates in aluminum foil and stored them at +4° C. over night.
(§3) Made a dilution series in DMSO of the test ligands. Made a 5 nM solution of the radioactive tracer in buffer. Mixed 250 μl diluted tracer with 5 μl of the test ligand from each concentration of the dilution series. Washed the receptor-coated flash plates. Added 200 μl per well of the ligand/radiolabel mixture to the receptor-coated flash plates. Wrapped the plates in aluminum foil and incubate at +4° C. over night.
(§4) Aspirated wells, and wash the flashed plates. Sealed the plate. Measured the remaining radioactivity in the plate.

human LXRα = target: T2, human LXRα (Homo sapiens, UniProt Q13133); assay: Ligand-binding test procedure for human LXRα; settings: competition with 3H T0901317, biotinylated hLXRα; read-out: hLXRa binding IC50
T2 construct: made in house; host or cells: E. coli
T2 sequence (Q13133 1-447): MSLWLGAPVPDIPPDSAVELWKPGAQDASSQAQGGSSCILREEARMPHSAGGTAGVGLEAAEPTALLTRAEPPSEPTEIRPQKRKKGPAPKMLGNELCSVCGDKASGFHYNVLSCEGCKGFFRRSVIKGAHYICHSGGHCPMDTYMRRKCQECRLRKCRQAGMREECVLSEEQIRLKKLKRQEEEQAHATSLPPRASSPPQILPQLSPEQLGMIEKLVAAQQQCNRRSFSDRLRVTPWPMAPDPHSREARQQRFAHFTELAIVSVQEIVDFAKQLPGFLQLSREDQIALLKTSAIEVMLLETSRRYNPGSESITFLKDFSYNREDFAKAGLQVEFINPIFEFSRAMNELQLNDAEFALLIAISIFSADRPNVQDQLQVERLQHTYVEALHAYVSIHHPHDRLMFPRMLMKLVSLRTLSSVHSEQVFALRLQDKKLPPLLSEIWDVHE
Description: II. Ligand-Binding Test Procedure for Human LXRα.
as §1
Receptor source: E. coli extract from cells expressing biotinylated hLXRα. Extract was made in a similar buffer as above, but with 50 mM TRIS.
as §2
as §3, with “[…]” for “250 μl”
as §4

ABCA1 gene = assay: Quantitative analysis of ABCA1 gene regulation in THP-1 cells; type: cell-based; settings: Gene regulation by LXR (human), differentiated THP-1 cells; for EC50: 18 hrs, ABCA1 mRNA by real-time PCR; for Agonism ABCA1: LXR agonist reference at 1.0 uM as positive control
Description: III. Quantitative Analysis of ABCA1 Gene Regulation in THP-1 Cells.
The compounds of formula (I) effect on the regulation of the ABCA1 gene was evaluated using the following procedure.
Cell culture: The THP-1 monocytic cell line (ATCC # TIB-202) was obtained from American Type Culture Collection (Manassas, Va.) and cultured in RPMI 1640 medium (Gibco, Carlsbad, Calif.) containing 10% FBS, 2 mM L-glutamine, and 55 uM beta-Mercaptoethanol (BME). Cells were plated in 96-well format at a density of 7.5×10^4 in complete medium containing 50-100 ng/ml phorbal 12,13-dibutyrate (Sigma, St. Louis, Mo.) for three days to induce differentiation into adherent macrophages. Differentiated THP-1 cells were treated with test compounds or ligands dissolved in DMSO (Sigma, D-8779) in culture medium lacking phorbal ester. […] Dose response effects were measured in duplicate, in the range of 0.001 to 30 micromolar concentrations and treated cells were incubated for an additional 18 hrs prior to RNA isolation. Unstimulated cells treated with vehicle were included as negative controls on each plate. An LXR agonist reference, N-(2,2,2-trifluoro-ethyl)-N-[4-(2,2,2-trifluoro-1-hydroxy-1-trifluoromethyl-ethyl)-phenyl]-benzenesulfonamide (Schultz, Joshua R., Genes & Development (2000), 14(22), 2831-2838), was dosed at 1.0 uM and served as a positive control. In antagonist mode, the compound under study is analyzed in the presence of 150 nM GW3965, trifluoromethyl-benzyl)-(2,2-diphenyl-ethyl)-amino]-propoxy]-phenyl)-acetic acid (Collins, J. L., J. Med. Chem. (2000), 45:1963-1966.). Results of antagonist analysis are expressed as % antagonism and IC50 (in μM). RNA isolation and quantitation: Total cellular RNA was isolated from treated cells cultured in 96-well plates using PrepStation 6100 (Applied Biosystems, Foster City, Calif.), according to the manufacturer's recommendations. RNA was resuspended in ribonuclease-free water and stored at −70° C. prior to analysis. RNA concentrations were quantitated with RiboGreen test procedure, #R-11490 (Molecular Probes, Eugene, Oreg.). Gene expression analysis: Gene-specific mRNA quantitation was performed by real-time PCR with the Perkin Elmer Corp. chemistry on an ABI Prism 7700 Sequence detection system (Applied Biosystems, Foster City, Calif.) according to the manufacturer's instructions. Samples (50-100 ng) of total RNA were assayed in duplicate or triplicate in 50 ul reactions using one-step RT-PCR and the standard curve method to estimate specific mRNA concentrations. Sequences of gene-specific primer and probe sets were designed with Primer Express Software (Applied Biosystems, Foster City, Calif.). The human ABCA1 primer and probe sequences are: forward, […], reverse, […], and probe, 6FAM-[…]-TAMRA. RT and PCR reactions were performed according to PE Applied Biosystem's protocol for Taqman Gold RT-PCR or Qiagen's protocl for Quantitect probe RT-PCR. Relative levels of ABCA1 mRNA are normalized using GAPDH mRNA or 18S rRNA probe/primer sets purchased commercially (Applied Biosystems, Foster City, Calif.).
Mean, standard deviation and statistical significance of duplicate evaluations of RNA samples were assessed using ANOVA, one-way analysis of variance using SAS analysis.

Compound | IC50 (human LXRβ) | IC50 (human LXRα) | EC50 (ABCA1 gene) | Agonism ABCA1 (ABCA1 gene)
CCS(=O)(=O)c1cccc(Oc2cccc(-c3c(Cc4ccccc4)nn4c(C(F)(F)F)ccnc34)c2)c1 [Example 6, 2-benzyl-3-(3-(3-(ethylsulfonyl)phenoxy)phenyl)-7-(trifluoromethyl)pyrazolo[1,5-a]pyrimidine] | 5.3 nM | 98.2 nM | 275 nM | 101%
O=S(=O)(CCCO)c1cccc(Oc2cccc(-c3c(Cc4ccccc4)nn4c(C(F)(F)F)ccnc34)c2)c1 [Example 7, 3-(3-(3-(2-benzyl-7-(trifluoromethyl)pyrazolo[1,5-a]pyrimidin-3-yl)phenoxy)phenylsulfonyl)propan-1-ol] | 3.4 nM | 87.2 nM | 724 nM | 109%
CS(=O)(=O)c1cccc(Oc2cccc(-c3c(Cc4ccccc4)nn4c(C(F)(F)F)ccnc34)c2)c1 [Example 5, 2-benzyl-3-{3-[3-(methylsulfonyl)phenoxy]phenyl}-7-(trifluoromethyl)pyrazolo[1,5-a]pyrimidine] | 2.4 nM | 61.6 nM | 115 nM | 98%
